Experimental data: patent US20160067272A1, “METHODS FOR TREATING IMMUNE DISEASES” (priority 2013, published 2016)
Entries after “also recorded” stand apart in the source; their conditions may differ.

What was measured:
naïve CD4+ T cells [1] = experiment: Naïve CD4+ T cell differentiation under iTreg polarizing conditions; assay type: cell-based, mouse
Excerpt: Next, it was investigated whether NAD^+ modulates CD4^+ T differentiation under iTreg polarizing conditions. Isolated naïve CD4^+ T cells were activated with anti-CD3/CD28 antibodies in presence of recombinant TGFβ and IL-2 cytokines and blocking anti-IL-4, anti-IL-12 and anti-IFNγ antibodies.
(§1) Single-cell leukocyte suspensions were obtained from spleens from 8-10 week old DBA mice and CD4^− T cells were isolated by negative selection using a CD4^+ T cell isolation kit (MILTENYI BIOTEC, Bergisch Gladbach, Germany). Cells were further sorted using α-CD4-PE (EBIOSCIENCE, San Diego, Calif.) and purities of CD4^+ T cells after isolation were >98%.
(§2) All recombinant cytokines and antibodies were purchased from EBIOSCIENCE except recombinant TGF-β cytokine (R&D SYSTEMS, Minneapolis, Minn.). After 96 hrs of culture supernatants and cells were collected and analyzed by ELISA and flow cytometry, respectively.
(§3) Fluorescently labeled anti-mouse α-CD4 (GK1.5), α-CD25 (PC61), α-IFN-γ (XMG1.2) and unlabeled α-CD16/CD32 (2.4G2) antibodies were obtained from BD BIOSCIENCES (San Jose, Calif.). Fluorescently labeled anti-mouse α-IL-4 (FJK-16s), α-IL-10 (JES5-16E3), α-IL-17A (eBio17B7), and anti-TGFβ (TW7-16B4) were obtained from eBIOSCIENCE (San Diego, Calif.). Intracellular staining for IL-4, IL-10, IL-17A, IFNγ and TGFβ was performed according to manufacturers' protocols. Splenocytes were re-stimulated in complete media (RPMI media containing 10% FCS, 1% L-Glutamine, 1% Penicillin/Streptomycin; all Bio Whittaker, Walkersville, Md.) for 4 hours at 37° C. with ionomycin, phorbol 12-myristate 13-acetate and Brefelding A (EBIOSCIENCE). Cells were fixed and permeabilized using CYTOFIX/CYTOPERM solution (BD BIOSCIENCES). Flow cytometry measurements of single-cell suspensions were performed on a FACSCalibur using standard procedures and data were analyzed using FLOWJO software (TREE STAR, Ashland, Oreg.).

[2] = system: tryptophan hydroxylase-1 (Tph-1) and carboxypeptidase A3 (CA3); experiment: Gene expression in CD4+ T cells (microarray, qPCR); assay type: cell-based, mouse
Excerpt: After successive washes, RNA was eluted.

NOD/Schilt mice = experiment: Type 1 diabetes mouse model; assay type: in vivo
Experimental: NOD/Schilt mice were used to assess the role of NAD+ as a treatment for Type I Diabetes (T1D). By the 20th week, […] started consistently rising above the normal average. By week 25, […] were detected over 600 mg/dL. These levels were consistently high for 1 week before treatment with NAD+ was initiated. Treatment with NAD+ was given daily at 40 mg per mouse.
It is important to note that most T1D studies begin treating diabetic animals when glucose levels reach 250 mg/dl or greater for 2 consecutive days.

naïve CD4+ T cells [3] = experiment: Naïve CD4+ T cell differentiation under Th2 polarizing conditions; assay type: cell-based, mouse
Experimental: Next, the effects of NAD^+ on activated CD4+ T cells were tested in Th2 polarizing conditions. […] In the absence of NAD^−, CD4^+ T cells cultured in Th2 cytokine environment barely produced IL-17A cytokine while in the presence of increasing concentrations of NAD^+, cultured cells produced large amounts (>2000 pg/ml) in a dose dependent manner (FIG. 2A). […] In contrast, production of the pro-inflammatory cytokine TNF-α was inhibited in the presence of NAD^− (FIG. 7D). […] Thus, these findings indicate that NAD^+ drives the switch from classical Th2/IL-10^+ toward Th2/IL-17A^+ producing cells.
as §1, §2, §3

[4] = system: P2RX4, P2RX7, P2RY1, P2RY2, P2RY4; experiment: Purinergic receptor expression in nTregs (real-time PCR, immunofluorescence); assay type: cell-based, mouse; conditions: 24 hrs
naïve CD4+ T cells [5] = experiment: Naïve CD4+ T cell differentiation under Th1 polarizing conditions (ELISA, flow cytometry); assay type: cell-based, mouse
Experimental: The inventors next investigated whether NAD^− regulates CD4^+ T cell differentiation in Th1 polarizing conditions. Isolated naïve CD4^+ T cells were cultured with anti-CD3/CD28 antibodies in presence of recombinant IL-12 and IL-2 cytokines and anti-IL4 antibody. […] In contrast to Th0 polarizing conditions, NAD^+ induced a robust IL-10 secretion (>3500 pg/ml) in Th1 cytokine environment (FIG. 1A). Furthermore, pro-inflammatory cytokines such as TNF-α and IL-6 were reduced by NAD^+ (FIG. 7C). […] Furthermore, the study tested whether NAD^+ promoted the shift of human CD4^+ T helper cells in Th1 polarizing conditions towards IL-10 cytokine production. Human peripheral blood CD4^| T cells were activated with anti-CD3/CD28 antibodies under Th1 polarizing conditions (recombinant IL-12 and IL-2 cytokines and anti-IL4 antibody) with increasing concentrations of NAD+. After 96 hours of culture, CD4^+IL-10^+IFNγ^+ cell frequency was assessed by flow cytometry analysis.
as §1, §2, §3

[6] = nTregs, anti-CD3/CD28, with vs without NAD+

Structure (SMILES): NC(=O)c1ccc[n+]([C@@H]2O[C@H](COP(=O)([O-])OP(=O)(O)OC[C@H]3O[C@@H](n4cnc5c(N)ncnc54)[C@H](O)[C@@H]3O)[C@@H](O)[C@H]2O)c1 [NAD+, nicotinamide adenine dinucleotide]
- amount of TGFβ (naïve CD4+ T cells [1]): reduced amount
- IL-6 production (naïve CD4+ T cells [1]; ELISA): remained unchanged
- IL-10 secretion (naïve CD4+ T cells [1]; ELISA): reduced
- IL-17A cytokine production (naïve CD4+ T cells [1]; ELISA): increased
- TNF-α production (naïve CD4+ T cells [1]; ELISA): inhibited
- frequency of CD4+IL10+ cells (naïve CD4+ T cells [1]; flow cytometry): robust decreased frequency
- frequency of CD4+IL17A+ cells (naïve CD4+ T cells [1]; flow cytometry): increased frequency
- number of CD4+TGFβ+IL-10+ cells (naïve CD4+ T cells [1]; flow cytometry): decreased number
- carboxypeptidase A3 (CA3) (microarray) ([2]; during CD4+ T helper cell differentiation): activate
- Tph-1 expression (qPCR) ([2]; with vs without NAD+): up-regulation
- blood glucose levels (NOD/Schilt mice; diabetic mice (higher than 600 mg/dl), NAD+ daily 40 mg per mouse): much lower levels; also recorded: marked decrease
- insulin levels (NOD/Schilt mice; diabetic mice (over 600 mg/dL), NAD+ daily 40 mg per mouse, 5 days after treatment): started to decline at a significant rate
- activity of lethargic type 1 diabetic mice (NOD/Schilt mice; within 10 days of NAD+ treatment): became much more active and aggressive
- IL-4 cytokine production (naïve CD4+ T cells [3]; 96 hrs, ELISA): did not affect
- IL-10 cytokine production (naïve CD4+ T cells [3]; 96 hrs, ELISA): reduced
- IL-13 cytokine production (naïve CD4+ T cells [3]; ELISA): did not affect
- TNF-α production (naïve CD4+ T cells [3]; ELISA): inhibited
- CD4+IL10+ cell frequency (naïve CD4+ T cells [3]; flow cytometry): decreased number
- CD4+IL17A+ cells (naïve CD4+ T cells [3]; flow cytometry): increased number
- CD4+IL-4+ cell frequency (naïve CD4+ T cells [3]; flow cytometry): no changes
- IL-17A secretion (naïve CD4+ T cells [3]; increasing NAD+, dose dependent, ELISA): > 2000 pg/mL
- expression of P2RX4 receptor on the cell surface ([4]; immunofluorescence, 50 μM NAD): increased
- expression of P2RX7 receptor on the cell surface ([4]; immunofluorescence, 50 μM NAD): increased
- P2RX4 mRNA expression level [4, 6]: > 4 fold
- P2RX7 mRNA expression level [4, 6]: > 15 fold
- P2RY1 mRNA level ([4]; nTregs, with vs without NAD+): remained unchanged
- P2RY2 mRNA level ([4]; nTregs, with vs without NAD+): remained unchanged
- P2RY4 mRNA level ([4]; nTregs, with vs without NAD+): remained unchanged
- IFN-γ cytokine production (naïve CD4+ T cells [5]; 96 hrs, ELISA): did not change
- IL-6 production (naïve CD4+ T cells [5]; 96 hrs, ELISA): reduced
- IL-10 secretion (naïve CD4+ T cells [5]; 96 hrs, ELISA): > 3500 pg/mL
- IL-17A cytokine production (naïve CD4+ T cells [5]; 96 hrs, ELISA): 400 pg/mL
- TNF-α production (naïve CD4+ T cells [5]; 96 hrs, ELISA): reduced
- IL-10 production by Th1-IFN-γ producing cells (naïve CD4+ T cells [5]; flow cytometry): promoted
- frequency of CD4+IFN-γ cells (naïve CD4+ T cells [5]; flow cytometry): increased frequencies
- frequency of CD4+IL17A+ cells (naïve CD4+ T cells [5]; flow cytometry): increased frequencies
- frequency of CD4+IL-10+ cells (naïve CD4+ T cells [5]; flow cytometry): increased frequencies
